Experimental data published in PubChem BioAssay AID1963833 (Molecular Pharmacology Branch, DTP, NCI, 2024).

Test system: 883617-216-R-J1-PDC complex spheroid viability
Test: Anticancer human tumor 883617-216-R-J1-PDC patient-derived bladder carcinoma cell line growth inhibition [POLQ]
Conditions: for IC50: curve of first compound; for viability, T/C: stronger effect = lower value
Summary of the method: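 Patient-derived tumour cells were co-cultured with HUVEC and mesenchymal stem cells as multicellular spheroids at 37 °C. They were treated with POLQ inhibitors (novobiocin, ART-558, RP6685) alone or combined with other agents. Top concentrations were at or near clinical Cmax (otherwise 10 microM; SN-38 at 1 microM), decreasing in half-log steps.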

[1] = second compound 0.0316 µM, first compound 0.0316 µM
[2] = second compound 0.0316 µM, first compound 0.1 µM
[3] = second compound 0.0316 µM, first compound 0.316 µM
[4] = second compound 0.0316 µM, first compound 1 µM
[5] = second compound 0.0316 µM, first compound 3.16 µM
[6] = second compound 0.0316 µM, first compound 10 µM
[7] = second compound 0.1 µM, first compound 0.0316 µM
[8] = second compound 0.1 µM, first compound 0.1 µM
[9] = second compound 0.1 µM, first compound 0.316 µM
[10] = second compound 0.1 µM, first compound 1 µM
[11] = second compound 0.1 µM, first compound 3.16 µM
[12] = second compound 0.1 µM, first compound 10 µM
[13] = second compound 0.316 µM, first compound 0.0316 µM
[14] = second compound 0.316 µM, first compound 0.1 µM
[15] = second compound 0.316 µM, first compound 0.316 µM
[16] = second compound 0.316 µM, first compound 1 µM
[17] = second compound 0.316 µM, first compound 3.16 µM
[18] = second compound 0.316 µM, first compound 10 µM
[19] = second compound 1 µM, first compound 0.0316 µM
[20] = second compound 1 µM, first compound 0.1 µM
[21] = second compound 1 µM, first compound 0.316 µM
[22] = second compound 1 µM, first compound 1 µM
[23] = second compound 1 µM, first compound 3.16 µM
[24] = second compound 1 µM, first compound 10 µM
[25] = second compound 3.16 µM, first compound 0.0316 µM
[26] = second compound 3.16 µM, first compound 0.1 µM
[27] = second compound 3.16 µM, first compound 0.316 µM
[28] = second compound 3.16 µM, first compound 1 µM
[29] = second compound 3.16 µM, first compound 3.16 µM
[30] = second compound 3.16 µM, first compound 10 µM
[31] = second compound 10 µM, first compound 0.0316 µM
[32] = second compound 10 µM, first compound 0.1 µM
[33] = second compound 10 µM, first compound 0.316 µM
[34] = second compound 10 µM, first compound 1 µM
[35] = second compound 10 µM, first compound 3.16 µM
[36] = second compound 10 µM, first compound 10 µM
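Note: spheroids exposed to compounds for seven days before readout.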
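Throughout, for viability, T/C: 100% = DMSO vehicle control viability.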

`O=C(Nc1ccc(O)c(NS(=O)(=O)c2ccc(F)cc2)c1)c1ccc(-c2ccccc2)cc1` + Cc1cccc(N(C)C(=O)C2C(O)CCN2c2nc(C)cc(C(F)(F)F)c2C#N)c1 showed an IC50 (second compound 0.0316 µM) of over 10000 nM, an IC50 (second compound 0.1 µM) of over 10000 nM and an IC50 (second compound 0.316 µM) of over 10000 nM. For the same molecule, the IC50 (second compound 1 µM) was over 10000 nM, the IC50 (second compound 3.16 µM) was over 10000 nM and the IC50 (second compound 10 µM) was over 10000 nM. For the same molecule, the viability, T/C [1] was 96.5%, the viability, T/C [2] was 90.4% and the viability, T/C [3] was 86.6%. It also gave a viability, T/C [4] of 91.7%, a viability, T/C [5] of 81.9% and a viability, T/C [6] of 65.5%. It also gave a viability, T/C [7] of 98.6%, a viability, T/C [8] of 98% and a viability, T/C [9] of 96.5%. For the same molecule, the viability, T/C [10] was 80%, the viability, T/C [11] was 79.3% and the viability, T/C [12] was 66.3%. The viability, T/C [13] was 97.6%, the viability, T/C [14] was 103% and the viability, T/C [15] was 95.3%. The viability, T/C [16] was 93.1%, the viability, T/C [17] was 83.3% and the viability, T/C [18] was 68.2%. It also gave a viability, T/C [19] of 97.9%, a viability, T/C [20] of 99.7% and a viability, T/C [21] of 99.1%. For the same molecule, the viability, T/C [22] was 82.9%, the viability, T/C [23] was 88.3% and the viability, T/C [24] was 71.1%. It also gave a viability, T/C [25] of 94.6%, a viability, T/C [26] of 103% and a viability, T/C [27] of 85.3%. For the same molecule, the viability, T/C [28] was 105%, the viability, T/C [29] was 80.8% and the viability, T/C [30] was 75.4%. It also gave a viability, T/C [31] of 105%, a viability, T/C [32] of 102% and a viability, T/C [33] of 94.2%. It also gave a viability, T/C [34] of 91%, a viability, T/C [35] of 81.5% and a viability, T/C [36] of 57.1%.

`CC(=O)O[C@H]1C(=O)[C@@]2(C)[C@H]([C@H](OC(=O)c3ccccc3)[C@]3(O)C[C@H](OC(=O)[C@H](O)[C@@H](NC(=O)c4ccccc4)c4ccccc4)C(C)=C1C3(C)C)[C@]1(OC(C)=O)CO[C@@H]1C[C@@H]2O` + Nc1ccc(C#CCN(C(=O)Cc2ncc(C(F)(F)F)cc2C(F)(F)F)c2ccc(F)cc2)nn1 gave an IC50 (second compound 0.0316 µM) of 11.9 nM, an IC50 (second compound 0.1 µM) of 10.5 nM and an IC50 (second compound 0.316 µM) of under 9.49 nM. It also gave an IC50 (second compound 1 µM) of under 9.49 nM, an IC50 (second compound 3.16 µM) of 10.4 nM and an IC50 (second compound 10 µM) of 11.6 nM. For the same molecule, the viability, T/C (second compound 0.0316 µM, first compound 0.00949 µM) was 54.8%, the viability, T/C (second compound 0.0316 µM, first compound 0.03 µM) was 30.9% and the viability, T/C (second compound 0.0316 µM, first compound 0.0949 µM) was 24.9%. For the same molecule, the viability, T/C (second compound 0.0316 µM, first compound 0.3 µM) was 22.9%, the viability, T/C (second compound 0.0316 µM, first compound 0.949 µM) was 25.1% and the viability, T/C (second compound 0.0316 µM, first compound 3 µM) was 22.2%. For the same molecule, the viability, T/C (second compound 0.1 µM, first compound 0.00949 µM) was 52.2%, the viability, T/C (second compound 0.1 µM, first compound 0.03 µM) was 27.6% and the viability, T/C (second compound 0.1 µM, first compound 0.0949 µM) was 31.1%. It also gave a viability, T/C (second compound 0.1 µM, first compound 0.3 µM) of 17.8%, a viability, T/C (second compound 0.1 µM, first compound 0.949 µM) of 18.7% and a viability, T/C (second compound 0.1 µM, first compound 3 µM) of 24.2%. For the same molecule, the viability, T/C (second compound 0.316 µM, first compound 0.00949 µM) was 51.6%, the viability, T/C (second compound 0.316 µM, first compound 0.03 µM) was 31.1% and the viability, T/C (second compound 0.316 µM, first compound 0.0949 µM) was 21.7%. The viability, T/C (second compound 0.316 µM, first compound 0.3 µM) was 24.8%, the viability, T/C (second compound 0.316 µM, first compound 0.949 µM) was 34.9% and the viability, T/C (second compound 0.316 µM, first compound 3 µM) was 36%. It also gave a viability, T/C (second compound 1 µM, first compound 0.00949 µM) of 49.1%, a viability, T/C (second compound 1 µM, first compound 0.03 µM) of 26.9% and a viability, T/C (second compound 1 µM, first compound 0.0949 µM) of 23.5%. The viability, T/C (second compound 1 µM, first compound 0.3 µM) was 20%, the viability, T/C (second compound 1 µM, first compound 0.949 µM) was 23% and the viability, T/C (second compound 1 µM, first compound 3 µM) was 31.8%. The viability, T/C (second compound 3.16 µM, first compound 0.00949 µM) was 50.5%, the viability, T/C (second compound 3.16 µM, first compound 0.03 µM) was 43.2% and the viability, T/C (second compound 3.16 µM, first compound 0.0949 µM) was 27.8%. It also gave a viability, T/C (second compound 3.16 µM, first compound 0.3 µM) of 28%, a viability, T/C (second compound 3.16 µM, first compound 0.949 µM) of 20.7% and a viability, T/C (second compound 3.16 µM, first compound 3 µM) of 23.5%. It also gave a viability, T/C (second compound 10 µM, first compound 0.00949 µM) of 53.8%, a viability, T/C (second compound 10 µM, first compound 0.03 µM) of 31.9% and a viability, T/C (second compound 10 µM, first compound 0.0949 µM) of 27.2%. For the same molecule, the viability, T/C (second compound 10 µM, first compound 0.3 µM) was 26.5%, the viability, T/C (second compound 10 µM, first compound 0.949 µM) was 28% and the viability, T/C (second compound 10 µM, first compound 3 µM) was 24.6%.

With `COc1cccc2c1C(=O)c1c(O)c3c(c(O)c1C2=O)CC(O)(C(=O)CO)CC3OC1CC(N)C(O)C(C)O1` (stereo unspecified) + Nc1ccc(C#CCN(C(=O)Cc2ncc(C(F)(F)F)cc2C(F)(F)F)c2ccc(F)cc2)nn1 the IC50 (second compound 0.0316 µM) was 440 nM, the IC50 (second compound 0.1 µM) was 382 nM and the IC50 (second compound 0.316 µM) was 341 nM. The IC50 (second compound 1 µM) was 398 nM, the IC50 (second compound 3.16 µM) was 371 nM and the IC50 (second compound 10 µM) was 419 nM. It also gave a viability, T/C [1] of 76.5%, a viability, T/C [2] of 67.2% and a viability, T/C [3] of 62.8%. For the same molecule, the viability, T/C [4] was 19.8%, the viability, T/C [5] was 0.23% and the viability, T/C [6] was 0.18%. The viability, T/C [7] was 71.3%, the viability, T/C [8] was 74.7% and the viability, T/C [9] was 55.2%. For the same molecule, the viability, T/C [10] was 18.8%, the viability, T/C [11] was 0.24% and the viability, T/C [12] was 0.17%. The viability, T/C [13] was 79.3%, the viability, T/C [14] was 72.2% and the viability, T/C [15] was 52.9%. It also gave a viability, T/C [16] of 16.7%, a viability, T/C [17] of 0.21% and a viability, T/C [18] of 0.71%. For the same molecule, the viability, T/C [19] was 77.3%, the viability, T/C [20] was 64.2% and the viability, T/C [21] was 59.7%. The viability, T/C [22] was 15.4%, the viability, T/C [23] was 0.76% and the viability, T/C [24] was 0.21%. The viability, T/C [25] was 78.5%, the viability, T/C [26] was 68.6% and the viability, T/C [27] was 56.6%. It also gave a viability, T/C [28] of 15.3%, a viability, T/C [29] of 0.47% and a viability, T/C [30] of 0.94%. The viability, T/C [31] was 81.8%, the viability, T/C [32] was 63% and the viability, T/C [33] was 62.6%. It also gave a viability, T/C [34] of 14.5%, a viability, T/C [35] of 0.53% and a viability, T/C [36] of 0.36%.
